Laboratory results as given in ChEMBL document CHEMBL3352178, “Antidepressant- and anxiolytic-like activity of 7-phenylpiperazinylalkyl-1,3-dimethyl-purine-2,6-dione derivatives with diversified 5-HT₁A receptor functional profile” (Bioorg Med Chem, 2015).
Active and inactive are the calls of the source. No cut-off for these calls is given here.

How the values were obtained:
[1] = target: 5-hydroxytryptamine receptor 2A (Rattus norvegicus, UniProt P14842); assay: Displacement of [3H]-ketanserin from 5-HT2AR in rat cortex
[2] = target: D(2) dopamine receptor (Rattus norvegicus, UniProt P61169); assay: Displacement of [3H]-spiperone from dopamine D2 receptor in rat striatum
[3] = target: 5-hydroxytryptamine receptor 6 (Homo sapiens, UniProt P50406); assay: Displacement of [3H]LSD from human cloned 5-HT6R expressed in HEK293 cells; type: cell-based
[4] = target: 5-hydroxytryptamine receptor 7 (Homo sapiens, UniProt P34969); assay: Displacement of [3H]]-5-CT from human cloned 5-HT7R expressed in HEK293 cells; type: cell-based
[5] = target: T1, 5-hydroxytryptamine receptor 1A (Rattus norvegicus, UniProt P19327); assay: Displacement of [3H]-8-OH-DPAT from 5-HT1AR in rat hippocampus; type: tissue-based
T1 sequence (P19327 whole entry): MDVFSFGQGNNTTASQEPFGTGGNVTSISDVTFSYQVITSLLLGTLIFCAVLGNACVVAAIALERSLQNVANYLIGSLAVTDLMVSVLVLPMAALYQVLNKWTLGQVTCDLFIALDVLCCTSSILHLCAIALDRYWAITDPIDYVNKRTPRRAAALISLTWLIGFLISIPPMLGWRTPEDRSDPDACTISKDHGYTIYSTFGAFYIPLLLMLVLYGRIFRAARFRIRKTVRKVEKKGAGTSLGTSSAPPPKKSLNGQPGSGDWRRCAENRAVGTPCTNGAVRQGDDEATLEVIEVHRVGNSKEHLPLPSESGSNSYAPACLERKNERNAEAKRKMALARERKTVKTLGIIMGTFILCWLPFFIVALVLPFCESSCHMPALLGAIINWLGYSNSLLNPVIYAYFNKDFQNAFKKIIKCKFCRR

[6] = tested on: Mus musculus; assay: Anxiolytic-like activity in mouse assessed as increase in number of punished crossings at 1.25 to 5 mg/kg, ip dosed 60 mins before test by four plate test; type: functional, organism-based
[7] = tested on: Mus musculus; assay: Antidepressant-like activity in mouse assessed as reduction in immobility time at 10 to 20 mg/kg, ip dosed 60 mins before test by forced swim test; type: functional, organism-based
[8] = tested on: Mus musculus; assay: Effect on spontaneous locomotor activity in ip dosed mouse during 2 to 6 mins; type: ADME, organism-based; conditions: in vivo

Chain of 5-hydroxytryptamine receptor 7 (P34969 whole entry): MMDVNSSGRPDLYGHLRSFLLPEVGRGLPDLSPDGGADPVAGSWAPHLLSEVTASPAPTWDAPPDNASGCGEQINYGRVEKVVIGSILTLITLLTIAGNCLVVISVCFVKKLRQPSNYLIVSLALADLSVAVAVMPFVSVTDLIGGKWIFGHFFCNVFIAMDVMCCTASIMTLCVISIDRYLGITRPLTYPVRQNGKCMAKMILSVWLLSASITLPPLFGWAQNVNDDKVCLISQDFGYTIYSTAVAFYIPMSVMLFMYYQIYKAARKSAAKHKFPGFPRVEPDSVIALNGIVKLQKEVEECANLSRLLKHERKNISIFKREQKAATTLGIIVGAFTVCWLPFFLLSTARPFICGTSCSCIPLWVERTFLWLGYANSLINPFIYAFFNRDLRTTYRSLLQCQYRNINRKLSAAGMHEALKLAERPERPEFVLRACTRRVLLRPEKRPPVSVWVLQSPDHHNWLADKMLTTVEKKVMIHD
Chain of 5-hydroxytryptamine receptor 6 (P50406 whole entry): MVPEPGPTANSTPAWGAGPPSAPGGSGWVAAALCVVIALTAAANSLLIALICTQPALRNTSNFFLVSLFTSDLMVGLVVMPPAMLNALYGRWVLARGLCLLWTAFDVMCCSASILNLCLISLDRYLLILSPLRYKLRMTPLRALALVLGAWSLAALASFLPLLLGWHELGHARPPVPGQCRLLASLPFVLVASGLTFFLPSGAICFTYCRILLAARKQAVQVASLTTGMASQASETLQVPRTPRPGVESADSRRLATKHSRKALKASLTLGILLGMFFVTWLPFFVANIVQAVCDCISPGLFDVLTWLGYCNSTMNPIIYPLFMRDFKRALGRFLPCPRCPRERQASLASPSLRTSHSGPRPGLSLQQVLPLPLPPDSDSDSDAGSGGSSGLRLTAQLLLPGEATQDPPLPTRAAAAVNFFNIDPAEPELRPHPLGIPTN
Chain of 5-hydroxytryptamine receptor 2A (P14842 whole entry): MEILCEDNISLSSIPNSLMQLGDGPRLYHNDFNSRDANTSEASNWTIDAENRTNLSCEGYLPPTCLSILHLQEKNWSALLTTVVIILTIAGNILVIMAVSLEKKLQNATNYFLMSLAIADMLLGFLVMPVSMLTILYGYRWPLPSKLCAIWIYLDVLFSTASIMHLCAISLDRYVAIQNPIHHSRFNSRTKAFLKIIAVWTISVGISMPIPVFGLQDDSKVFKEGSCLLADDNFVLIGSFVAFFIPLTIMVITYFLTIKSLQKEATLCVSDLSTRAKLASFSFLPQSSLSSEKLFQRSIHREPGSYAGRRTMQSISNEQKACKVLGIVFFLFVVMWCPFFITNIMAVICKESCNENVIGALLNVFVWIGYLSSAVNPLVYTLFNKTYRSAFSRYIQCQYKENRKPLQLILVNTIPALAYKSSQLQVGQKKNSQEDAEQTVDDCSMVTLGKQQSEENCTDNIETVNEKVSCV
Chain of D(2) dopamine receptor (P61169 whole entry): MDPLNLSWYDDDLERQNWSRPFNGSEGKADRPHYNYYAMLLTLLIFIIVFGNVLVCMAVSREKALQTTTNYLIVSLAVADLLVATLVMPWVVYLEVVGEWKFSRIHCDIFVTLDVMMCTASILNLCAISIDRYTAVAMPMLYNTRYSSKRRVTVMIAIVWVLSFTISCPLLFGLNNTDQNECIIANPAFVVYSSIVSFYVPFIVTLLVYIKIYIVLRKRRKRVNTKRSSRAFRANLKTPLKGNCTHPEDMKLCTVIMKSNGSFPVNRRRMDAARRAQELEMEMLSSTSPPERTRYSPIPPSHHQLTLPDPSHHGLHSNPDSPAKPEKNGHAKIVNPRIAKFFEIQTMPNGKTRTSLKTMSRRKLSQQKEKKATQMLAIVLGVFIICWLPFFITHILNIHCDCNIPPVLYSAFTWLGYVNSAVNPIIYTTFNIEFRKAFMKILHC

Row | SMILES | Ki [1] | Ki [2] | Ki [3] | Ki [4] | Ki [5] | Activity [6] | Activity [7] | Activity [8]
1 | COc1ccccc1N1CCN(CCCCn2cnc3c2c(=O)n(C)c(=O)n3C)CC1 | 1050 nM | 65 nM | 1970 nM | 434 nM | 1.2 nM |  |  | 
2 | Cn1c(=O)c2c(ncn2CCCCN2CCc3ccccc3C2)n(C)c1=O | 22000 nM | 7820 nM | 11700 nM | 629 nM | 239 nM |  |  | 
3 | CN1C(=O)CN=C(c2ccccc2)c2cc(Cl)ccc21 |  |  |  |  |  | Active |  | 
4 | Cn1c(=O)c2c(ncn2CCCN2CCN(c3ccccc3)CC2)n(C)c1=O | 92 nM | 1090 nM | 20100 nM | 1430 nM | 571 nM |  |  | 
5 | CCOc1nc2c(c(=O)n(C)c(=O)n2C)n1CCCCN1CCN(c2ccccc2OC)CC1 |  |  |  | 54 nM |  |  |  | 
6 | Cn1c(=O)c2c(ncn2CCCN2CCc3ccccc3C2)n(C)c1=O | 10500 nM | 2710 nM | 12300 nM | 3620 nM | 433 nM |  |  | 
7 | CN(C)CCCN1c2ccccc2CCc2ccccc21 [IMIPRAMINE] |  |  |  |  |  |  | Active | Non-toxic
8 | Cn1c(=O)c2c(ncn2CCCN2CCN(c3cccc(Cl)c3)CC2)n(C)c1=O | 53 nM | 3190 nM | 20300 nM | 2800 nM | 182 nM |  |  | 
9 | Cn1c(=O)c2c(ncn2CCCCCN2CCc3ccccc3C2)n(C)c1=O | 16400 nM | 1220 nM | 9140 nM | 1010 nM | 171 nM |  |  | 
10 | Cn1c(=O)c2c(nc(N3CCOCC3)n2CCCCN2CCN(c3cccc(Cl)c3)CC2)n(C)c1=O | 21 nM |  | 207 nM | 112 nM | 22 nM |  |  | 
11 | Cn1c(=O)c2c(ncn2CCCCN2CCN(c3ccc(Cl)c(Cl)c3)CC2)n(C)c1=O | 460 nM | 73 nM | 1900 nM | 179 nM | 105 nM |  |  | 
12 | Cn1c(=O)c2c(ncn2CCCCN2CCN(c3ccccc3)CC2)n(C)c1=O | 507 nM | 1010 nM | 14200 nM | 1150 nM | 23 nM |  |  | 
13 | Cn1c(=O)c2c(ncn2CCCCN2CCN(c3cccc(Cl)c3Cl)CC2)n(C)c1=O | 162 nM | 15 nM | 68 nM | 73 nM | 55 nM |  |  | 
14 | COc1ccccc1N1CCN(CCCn2cnc3c2c(=O)n(C)c(=O)n3C)CC1 | 927 nM | 944 nM | 12100 nM | 2210 nM | 119 nM |  |  | 
